Where two headings read alike, the source gives them in different places.
Key:
Zika virus PRVABC-59 [1] = tested on: Zika virus PRVABC-59
[2] = Phase 1 study of intramuscular injection in healthy human subjects (Example 8); format: in vivo; settings: human, in vivo
Description: A phase 1 double-blind, placebo-controlled, dose-ranging study was conducted to evaluate the safety, tolerability, and pharmacokinetics of Compound A administered by intramuscular injection (IM) in healthy human subjects. The study was conducted in two parts. In part 1, subjects received a single dose of Compound A at doses from 0.3 mg/kg to 10 mg/kg via IM administration. Additionally, the effect of lidocaine administration (co-administered with Compound A at a dose of 4 mg/kg) on alleviation of pain associated with injection was also evaluated. In part 2, subjects received Compound A for 7 days (q.d.) at doses of 2.5 mg/kg/day, 5 mg/kg/day or 10 mg/kg/day via IM administration. 50 subjects received single doses of Compound A in part 1 (12 subjects received placebo) and 23 subjects received multiple doses of Compound A in part 2 (6 subjects received placebo). All planned cohorts were completed.
Eligible subjects were adults of either sex ages 18 to 50. […]
The plasma concentration time profile of Compound A was determined for each subject in part 2 (results expressed as ng/ml Compound A). Blood samples were taken on Day 1 prior to administration of the first dose and at 1, 2, 3, 4, 6, 8, 10, 12, 16 and 24 hours after administration of the first dose of Compound A and on Day 7 prior to administration of the last dose of Compound A and at 1, 2, 3, 4, 6, 8, 10, 12, 16, 24, 36, 48, 72 and 96 hours after administration of the last dose of Compound A. Plasma samples were obtained from the blood samples and the concentration of Compound A determined.

Zika virus PRVABC-59 [3] = settings: for plasma viremia: n=4; for samples with Zika virus below the limit of quantification: FIG. 15D
[4] = tested on: Zika virus (Malaysia, strain P 6-740); assay: Murine Zika virus model, treatment begun 1, 3, 5 or 7 dpi (Example 5); format: in vivo, AG129 mice; settings: for number of mice showing no disease signs: n=8; for weight change in grams between days 7 and 13 post-infection vs placebo: FIG. 10B
Description: Compound A was administered IM at 300 mg/kg/day in a volume of 0.05 ml saline.
Disease signs were assessed daily for each mouse and the date the disease sign was first noted was recorded. The graph represents the number of mice observed with each disease sign. […] As the time of administration of Compound A post-infection increased, the number of mice displaying no disease signs decreased (2 mice at 3 dpi, 1 mouse at 5 dpi and 0 mice at 7 dpi) and the total number of disease signs increased (13 disease signs at 3 dpi, 16 disease signs at 5 dpi and 23 disease signs at 7 dpi).

## Cl.Nc1ncnc2c([C@@H]3N[C@H](CO)[C@@H](O)[C@H]3O)c[nH]c12 [Compound A]
Zika virus PRVABC-59 [1]; Group 1: 200 mg/kg split dose day 0 (+90 min), 25 mg/kg b.i.d. days 1-9, IM, n=5
  plasma viremia through day 28 post-infection: did not develop detectable viremia
Zika virus PRVABC-59 [1]; Group 1, FIG. 13A
  Zika virus RNA in CSF, saliva and urine: only sporadically detectable Zika virus RNA
Zika virus PRVABC-59 [1]; Group 2: 200 mg/kg split dose day 0 only, IM
  magnitude of viremia in viremic animals: significantly reduced as compared to control
Zika virus PRVABC-59 [1]; Group 2: 200 mg/kg split dose day 0 only, IM, n=5
  animals with detectable plasma viremia: only two animals from this group showing viremia
Zika virus PRVABC-59 [1]; Group 2, FIG. 13B
  Zika virus RNA in CSF, saliva and urine: only sporadically detectable Zika virus RNA
Zika virus PRVABC-59 [1]; IM, Groups 1 and 2
  tolerability: well-tolerated
[2]
  clinically significant laboratory abnormalities: no clinically significant laboratory abnormalities occurred
  exposure vs dose: dose-proportional and linear with increasing dose
[2]; 4 mg/kg
  plasma PK profile on co-administration of lidocaine: without altering the plasma PK profile
Zika virus PRVABC-59 [3]; Group 1: 200 mg/kg day 0, 25 mg/kg b.i.d. days 1-9, IM
  plasma viremia: did not develop detectable viremia
Zika virus PRVABC-59 [3]; Group 2: 150 mg/kg day 0, 19 mg/kg b.i.d. days 1-9, IM
  plasma viremia: only one animal from this group showing slight viremia
Zika virus PRVABC-59 [3]; Group 3: 100 mg/kg day 0, 13 mg/kg b.i.d. days 1-9, IM
  plasma viremia: only two animals from this group showing slight viremia
Zika virus PRVABC-59 [3]; Group 4: 50 mg/kg day 0, 6 mg/kg b.i.d. days 1-9, IM
  plasma viremia: viremic between days 4 to 7 post-infection
Zika virus PRVABC-59 [3]; IM, Groups 1 to 4
  tolerability: well-tolerated
Zika virus PRVABC-59 [3]; total dose 492 mg/kg (Group 2)
  samples with Zika virus below the limit of quantification: 3 out of 4
Zika virus PRVABC-59 [3]; total dose 650 mg/kg (group 1)
  samples with Zika virus below the limit of quantification: 4 out of 4
Zika virus PRVABC-59 [3]; total doses greater than 334 mg/kg (Groups 1 to 3), p <0.0001
  maximum Zika virus titers vs control: decreased dramatically
[4]; 300 mg/kg/day IM
  time of first administration at which treatment is effective: up to 5 days post-infection
[4]; 300 mg/kg/day IM bid x 8 days, begun 1 dpi, p≤0.001
  survival vs placebo: statistically significant improvements in survival
[4]; 300 mg/kg/day IM, begun 1, 3, 5 or 7 dpi, FIG. 10C
  viral RNA levels in serum on day 5 post-infection: not significantly decreased
[4]; 300 mg/kg/day IM, begun 1 dpi
  total number of disease signs: 6 disease signs
  number of mice showing no disease signs: 6 mice
[4]; 300 mg/kg/day IM, begun 1 dpi, p≤0.001
  weight change in grams between days 7 and 13 post-infection vs placebo: statistically significant decrease in weight loss
[4]; 300 mg/kg/day IM, begun 1 dpi, through 27 dpi, FIG. 10A
  percent weight change: essentially no weight change
[4]; 300 mg/kg/day IM, begun 3 dpi
  mortality curve and survival vs placebo: delayed the mortality curve of infected mice and increased survival
  total number of disease signs: 13 disease signs
  number of mice showing no disease signs: 2 mice
[4]; 300 mg/kg/day IM, begun 3 dpi, FIG. 10A
  percentage weight loss: statistically significant decreases in percentage weight loss
[4]; 300 mg/kg/day IM, begun 3 dpi, p≤0.001
  weight change in grams between days 7 and 13 post-infection vs placebo: statistically significant decrease in weight loss
[4]; 300 mg/kg/day IM, begun 5 dpi
  mortality curve and survival vs placebo: delayed the mortality curve of infected mice and increased survival
  total number of disease signs: 16 disease signs
  number of mice showing no disease signs: 1 mouse
[4]; 300 mg/kg/day IM, begun 5 dpi, FIG. 10A
  percentage weight loss: statistically significant decreases in percentage weight loss
[4]; 300 mg/kg/day IM, begun 7 dpi
  total number of disease signs: 23 disease signs
  number of mice showing no disease signs: 0 mice
